# US20100061982A1, “3-SUBSTITUTED-1H-INDOLE, 3-SUBSTITUTED-1H-PYRROLO[2,3-B]PYRIDINE AND 3-SUBSTITUTED-1H-PYRROLO[3,2-B]PYRIDINE COMPOUNDS, THEIR USE AS MTOR KINASE AND PI3 KINASE INHIBITORS, AND THEIR SYNTHESES” (priority 2008, published 2010)
# Like-named read-outs stand apart in the source and are kept apart here.
# Tests used:
# [1] = test system: human tumor xenograft models; settings: cited from earlier work
# mTOR [2] = biological target: T1, mTOR (Homo sapiens, UniProt P42345); settings: read-out: mTOR IC50; mTOR complexes / mTOR enzymes; cited from earlier work
# [3] = Plasma Stability (37° C.), rat
# [4] = Plasma Stability (37° C.), nude mouse
# [5] = In vivo blood/plasma and tumor levels of prodrug and metabolites after 50 mg, kg po; settings: 50 mg
# PI3K alpha = PI3K alpha (Homo sapiens, UniProt P42336); test: PI3K-alpha Fluorescence Polarization Assay; type: biochemical
# Sequence of PI3K alpha (P42336 whole entry, species assumed): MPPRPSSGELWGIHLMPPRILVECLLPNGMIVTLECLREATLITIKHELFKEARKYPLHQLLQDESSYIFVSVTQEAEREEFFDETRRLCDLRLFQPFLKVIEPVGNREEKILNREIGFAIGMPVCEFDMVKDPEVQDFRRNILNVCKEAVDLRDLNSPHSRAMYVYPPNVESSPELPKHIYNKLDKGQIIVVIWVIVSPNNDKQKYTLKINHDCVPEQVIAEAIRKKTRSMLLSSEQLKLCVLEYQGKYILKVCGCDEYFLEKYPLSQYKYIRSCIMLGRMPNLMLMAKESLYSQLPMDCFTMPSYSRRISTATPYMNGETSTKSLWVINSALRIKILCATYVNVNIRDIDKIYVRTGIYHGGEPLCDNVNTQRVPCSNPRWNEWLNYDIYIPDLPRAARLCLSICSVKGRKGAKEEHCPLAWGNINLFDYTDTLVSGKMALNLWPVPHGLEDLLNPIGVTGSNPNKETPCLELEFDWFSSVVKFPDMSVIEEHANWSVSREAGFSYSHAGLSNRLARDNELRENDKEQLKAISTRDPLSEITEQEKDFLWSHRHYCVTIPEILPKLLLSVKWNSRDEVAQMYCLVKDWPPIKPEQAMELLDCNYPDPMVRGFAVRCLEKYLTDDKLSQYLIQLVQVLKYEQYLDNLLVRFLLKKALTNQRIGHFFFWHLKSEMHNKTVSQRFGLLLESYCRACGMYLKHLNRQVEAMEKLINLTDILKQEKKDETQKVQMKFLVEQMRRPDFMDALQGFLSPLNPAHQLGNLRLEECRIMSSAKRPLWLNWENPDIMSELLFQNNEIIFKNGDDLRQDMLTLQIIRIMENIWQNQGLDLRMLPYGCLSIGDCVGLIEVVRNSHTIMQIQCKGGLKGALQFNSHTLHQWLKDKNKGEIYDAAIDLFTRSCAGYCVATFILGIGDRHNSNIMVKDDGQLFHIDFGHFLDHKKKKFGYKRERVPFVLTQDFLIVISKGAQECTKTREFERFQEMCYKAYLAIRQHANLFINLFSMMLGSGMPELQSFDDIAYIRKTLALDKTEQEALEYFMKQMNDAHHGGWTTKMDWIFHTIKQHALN
# Sequence of PI3K alpha (P27986 whole entry partner, species assumed): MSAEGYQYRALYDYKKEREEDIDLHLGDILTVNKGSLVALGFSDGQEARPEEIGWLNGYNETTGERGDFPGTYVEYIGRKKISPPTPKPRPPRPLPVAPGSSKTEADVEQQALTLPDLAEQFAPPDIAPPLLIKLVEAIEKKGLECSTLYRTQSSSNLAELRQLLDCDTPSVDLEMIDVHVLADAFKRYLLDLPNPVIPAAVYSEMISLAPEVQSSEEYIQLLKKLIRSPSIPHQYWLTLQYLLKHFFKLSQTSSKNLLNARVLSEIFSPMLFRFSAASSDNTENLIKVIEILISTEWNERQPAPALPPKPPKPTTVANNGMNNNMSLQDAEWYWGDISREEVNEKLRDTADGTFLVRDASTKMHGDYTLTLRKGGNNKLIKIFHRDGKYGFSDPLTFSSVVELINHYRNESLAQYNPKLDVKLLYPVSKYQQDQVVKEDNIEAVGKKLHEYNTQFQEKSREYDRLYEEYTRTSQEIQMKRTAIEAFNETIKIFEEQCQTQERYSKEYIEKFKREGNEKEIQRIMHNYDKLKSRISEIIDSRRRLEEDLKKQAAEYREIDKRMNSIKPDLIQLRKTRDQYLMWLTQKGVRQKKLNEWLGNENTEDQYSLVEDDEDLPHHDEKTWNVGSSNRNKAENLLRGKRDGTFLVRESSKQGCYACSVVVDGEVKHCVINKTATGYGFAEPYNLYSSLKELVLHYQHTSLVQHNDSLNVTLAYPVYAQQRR
# [6] = Buffer Stability (37° C.)
# [7] = Microsome Stability (15 min), human; type: in vitro ADME; settings: microsomes, Phase I (NADPH), read-out: Microsome Stability (15 min) T ½ Phase I human
# [8] = Microsome Stability (15 min), rat; type: in vitro ADME; settings: microsomes, Phase I (NADPH), read-out: Microsome Stability (15 min) T ½ Phase I rat
# [9] = PAMPA permeability pH 7.4
# physchem = settings: pH 7.4, aqueous buffer
# mTOR [10] = biological target: T1, mTOR; test: mTOR Enzyme Assay (DELFIA, purified enzyme); type: biochemical; set-up: FLAG; settings: read-out: mTOR Mean IC50
# [11] = Microsome Stability (15 min), nude mouse; type: in vitro ADME; settings: microsomes, Phase I (NADPH), read-out: Microsome Stability (15 min) T ½ Phase I nude mouse
# [12] = test system: acute lymphoblastic leukemia; settings: in vivo; cited from earlier work
# [13] = CACO2 permeability a-b/b-a; type: in vitro ADME; settings: human, Caco-2; for Papp A→B: a − b (first value of cell), read-out: CACO2 Pe a − b; for Papp B→A: b − a (second value of cell), read-out: CACO2 Pe b − a
Structure (SMILES),Plasma Stability (37° C.) % Remaining (3-3.5 hours) rat [3] [%],Plasma Stability (37° C.) % Remaining (3-3.5 hours) nude mouse [4] [%],IC50 (PI3K alpha; read-out: PI3K alpha Mean IC50) [nM],Buffer Stability (37° C.) % Remaining (at 16-23 hours) SGF [6] [%],Buffer Stability (37° C.) % Remaining (at 16-23 hours) SIF [6] [%],Buffer Stability (37° C.) % Remaining (at 16-23 hours) pH 1 [6] [%],Buffer Stability (37° C.) % Remaining (at 16-23 hours) pH 4.5 [6] [%],Buffer Stability (37° C.) % Remaining (at 16-23 hours) pH 6.6 [6] [%],Buffer Stability (37° C.) % Remaining (at 16-23 hours) pH 7.4 [6] [%],Buffer Stability (37° C.) % Remaining (at 16-23 hours) pH 9 [6] [%],half-life [7] [min],half-life [8] [min],PAMPA Pe [9],solubility (physchem) [µg/mL],IC50 (mTOR [10]) [nM],IC50 (PI3K alpha) [nM],half-life [11] [min],further results
"FC(F)c1nc2ccccc2n1-c1nc(N2CCOCC2)nc(N2CCOCC2)n1 [ZSTK474, 2-(2-difluoromethylbenzoimidazol-1-yl)-4,6-dimorpholino-1,3,5-triazine]",,,,,,,,,,,,,,,,,,"tumor growth in mouse human xenograft cancer models ([1]; chronic oral administration, 400 mg/kg, A549, PC-3, WiDr): completely inhibited growth; IC50 (mTOR [2]): > 10000 nM"
"Oc1cccc(-c2nc(N3CCOCC3)c3oc4ncccc4c3n2)c1 [PI103, 3-(4-(4-morpholinyl)pyrido[3′,′: 4,5]furo[3,2-d]pyrimidin-2-yl)phenol]",,,,,,,,,,,,,,,,,,"activity in human tumor xenograft models ([1]; I.P. dosing in mice, U87MG, PC3, MDA-MB-468, MDA-MB-435, HCT 116, SKOV3, IGROV-1): demonstrated activity"
"COc1ccc2[nH]c(-c3ccccc3)c(/C=C3\Oc4cc(OC(=O)N(c5ccccc5)c5ccccc5)cc(OC(=O)N(c5ccccc5)c5ccccc5)c4C3=O)c2c1 [Example 11, (2Z)-2-[(5-methoxy-2-phenyl-1H-indol-3-yl)methylene]-3-oxo-2,3-dihydro-1-benzofuran-4,6-diyl bis(diphenylcarbamate)]",95,85,> 5050,100,98,99,103,100,100,89,23,> 30,1.14 10e−6 cm/s,1,,,,"plasma prodrug concentration ([5]; 0.5 h): bql, bql; plasma prodrug concentration ([5]; 2 h): bql, bql"
"COc1ccc2[nH]c(-c3ccccc3)c(/C=C3\Oc4cc(OP(=O)(O)O)cc(OP(=O)(O)O)c4C3=O)c2c1 [Example 38, (2Z)-2-[(5-methoxy-2-phenyl-1H-indol-3-yl)methylene]-3-oxo-2,3-dihydro-1-benzofuran-4,6-diyl bis[dihydrogen (phosphate)]]",,,890,,,,,,,,,,0.01 10e−6 cm/s,> 100,985,,,
"COc1ccc2[nH]c(-c3ccccc3)c(/C=C3\Oc4cc(OP(=O)(O)O)ccc4C3=O)c2c1 [Example 27, (2Z)-2-[(5-methoxy-2-phenyl-1H-indol-3-yl)methylene]-3-oxo-2,3-dihydro-1-benzofuran-6-yl dihydrogen phosphate]",,,123,,,,,,,,,19,0 10e−6 cm/s,65,2450,,,
"CN(C)C(=O)Oc1cccc2c1C(=O)/C(=C/c1cn(C)c3nccc(N4CC5CCC(C4)O5)c13)O2 [Example 44, (2Z)-2-{[1-methyl-4-(8-oxa-3-azabicyclo[3.2.1]oct-3-yl)-1H-pyrrolo[2,3-b]pyridin-3-yl]methylene}-3-oxo-2,3-dihydro-1-benzofuran-4-yl dimethylcarbamate]",51,64,,102,100,102,100,100,100,100,8,3,Undetected,,31,2490,4,
CO[C@H]1C[C@@H]2CC[C@@H](C)[C@@](O)(O2)C(=O)C(=O)N2CCCC[C@H]2C(=O)O[C@H]([C@H](C)C[C@@H]2CC[C@@H](OC(=O)C(C)(CO)CO)[C@H](OC)C2)CC(=O)[C@H](C)/C=C(\C)[C@@H](O)[C@@H](OC)C(=O)[C@H](C)C[C@H](C)/C=C/C=C/C=C/1C [Torisel],,,,,,,,,,,,,,,,,,activity in NOS/SCID xenograft mouse model of acute lymphoblastic leukemia [12]: active
"Cn1c(=O)n(-c2ccc(C(C)(C)C#N)cc2)c2c3cc(-c4cnc5ccccc5c4)ccc3ncc21 [NVP-BEZ-235, 2-methyl-2-(4-(3-methyl-2-oxo-8-(quinolin-3-yl)-2,3-dihydro-1H-imidazo[4,5-c]quinolin-1-yl)phenyl)propanenitrile]",,,,,,,,,,,,,,,,,,activity in human tumor xenograft models ([1]; prostrate (PC-3) and glioblastoma (U-87)): demonstrated activity
"CN(C)C(=O)Oc1cc(OC(=O)N(C)C)c2c(c1)O/C(=C\c1cn(C)c3cccc(-c4ccccc4)c13)C2=O [Example 48, (2Z)-2-[(1-methyl-4-phenyl-1H-indol-3-yl)methylene]-3-oxo-2,3-dihydro-1-benzofuran-4,6-diyl bis(dimethylcarbamate)]",>100,80,,100,100,100,100,100,100,100,25,,Undetected,,3150,> 10000,14,Papp A→B [13]: 0.5 ×10⁻⁶ cm/s; Papp B→A [13]: 0.5 ×10⁻⁶ cm/s
"CN(C)C(=O)Oc1cc(OC(=O)N(C)C)c2c(c1)O/C(=C\c1cn(C)c3nccc(-c4ccccc4)c13)C2=O [Example 43, (2Z)-2-[(1-methyl-4-phenyl-1H-pyrrolo[2,3-b]pyridin-3-yl)methylene]-3-oxo-2,3-dihydro-1-benzofuran-4,6-diyl bis(dimethylcarbamate)]",54,52,,100,100,100,100,100,100,100,11,,Undetected,,> 4000,> 10000,12,Papp A→B [13]: 2.2 ×10⁻⁶ cm/s; Papp B→A [13]: 1 ×10⁻⁶ cm/s
